Measured values reported in patent US9018257B2, “5-aminolevulinic acid derivatives, methods for their preparation and uses thereof” (Bar Ilan University, priority 2011, dated 2015).

Tests used:
α-globin [1] = assay: α-globin mRNA, quantitative real-time PCR, K562 cells; format: cell-based, human; conditions: 0.5 mM, 72 hours (peak)
Procedure: Globin RNAs are quantified by quantitative real time polymerase chain reaction, (qRT-PCR) using SYBR I Green (Applied Biosystems). The cDNA is generated from cell culture or tissues using a PCR purification kit (Qiagen, Valencia, Calif., USA). The qRT-PCR is performed in triplicate and is repeated in at least three separate experiments.
(§1) Total RNA (1 μg) was primed by oligo dT and reverse-transcribed by Verso cDNA kit according to the manufacturer's protocol (Thermo Scientific, West Palm Beach, USA). Quantitative PCR was done on a Step One Plus thermocycler (Applied Byosystems, Van Allen Way, CA, USA). The comparative threshold method was used to calculate the relative gene expression. Values were normalized against glyceraldehyde 3-phosphate dehydrogenase (GAPDH) for the different genes. Real time PCR was performed with Syber Green (Kapa Biosystems, Woburn, Mass., USA) using the following primers: […]
(§2) K562 cells are grown as described above and incubated with 0.5 mM of various compounds for 96 hours. Total heme content in the cells is evaluated. In addition, a globin mRNA and protein expression levels are evaluated using Quantitative real-time PCR and Western blot analysis, respectively.

K562 cells [2] = assay: MTT viability / proliferation of K562 cells; format: cell-based, human; conditions: 96 hours
Procedure: Cells are grown in 24 wells plate in a volume of 0.5 mL and treated as indicated for 96 hours. Then, 77 μL of 5 mg/mL MTT (3-[4,5-dimethylthiazol-2-yl]-2,5-diphenyltetrazolium bromide, (Sigma, Israel)) is added to each well for 2 hours. Afterwards, 400 μL of DMF solution (100 gr SDS dissolved in 250 mL dd H2O with 250 mL of DMF) is added for 4 hours. Absorbance is then measured in 570 nm using a Tecan spectrophotometer (NeoTec, Canada).
To evaluate the effect of various tested compounds on cell proliferation, K562 cells were treated for 96 hours and their viability was evaluated by MTT as detailed above.

PBGD mRNA = assay: PBGD mRNA, quantitative real-time PCR, K562 cells; format: cell-based, human; conditions: 0.5 mM, after 48-96 hours
Procedure: as §1
Relative quantification of gene expression was determined by the comparative threshold method (ÄCT), as described previously (Livak K J, Schmittgen T D). Analysis of relative gene expression data using real-time quantitative PCR and the 2(−Delta Delta C(T)) Method. Expression of the Gapdh mRNA in each individual sample was used to normalize the dataset.
(§3) K562 cells are grown as described above and incubated with 0.5 mM of various compounds for 96 hours. Activity of PBGD is evaluated as described above. Expression level of the PBGD protein is evaluated using Western blot analysis (as detailed above). Expression level of PBGD mRNA are evaluated using Quantitative real-time PCR.

Ferrochelatase = Ferrochelatase protein expression in K562 cells; format: cell-based, human; conditions: vs ALA, BA or their mixture
Procedure: K562 cells are fixed and stained with primary antibodies anti-αHb or anti-Glycophorin A and are tagged using the compatible secondary antibodies-Alexa 488-conjugated anti-rabbit antibody donkey anti-goat (Invitrogen, Oregon, USA) as recommended by Cell Signaling (MA, USA). Fluorescence is measured in 10,000 cells using FACS with an excitation wavelength of 488 nm and emission wavelength of 530 nm. K562 cells were suspended in paraformaldehyde 4% for 10 min at 37° C., followed by incubation with chilled methanol (final concentration 90%) for 30 min on ice. Cells were washed twice with PBS−/− and blocked with BSA 0.5% in PBS−/− for 10 min at room temperature. Afterwards, the cells were incubated in 50 μL of the primary antibody goat polyclonal Ferrochelatase (Santa Cruz Biotechnology, Santa Cruz, Calif., USA) or goat polyclonal glycophorin A (Santa Cruz Biotechnology, Santa Cruz, Calif., USA) (1:50 in BSA 0.5%) or anti-a Hb for 30 min at room temperature, washed once with PBS−/−, and incubated with a fluorescent donkey anti-goat IgG secondary antibody (1:1000) (Invitrogen, Carlsbad, Calif., USA) for 30 min at room temperature. The cells were washed again with PBS−/− and fluorescence was measured in 10,000 cells per sample using a FACS (Becton-Dickinson, San Jose, Calif., USA) with an excitation wavelength of 488 nm and emission wavelength 530 nm. […]

K562 cells [3] = assay: TEM ultrastructure of K562 cells (cellular maturation); format: cell-based, human; conditions: 96 hours
Procedure: Analysis is performed on bone-marrow, spleen and liver, processed as described in [17]. Briefly, cells are treated for 96 hours (hrs), harvested and fixed with Karnovsky fixative. The samples are washed in 0.1 M cacodylate buffer and fixed with 1% OsO4 in 0.1 M sodium cacodylate buffer for 1 hour (h). The samples are then dehydrated in graded ethanol solutions and propylene oxide and embedded in agar mix. Thin sections are cut, stained with uranyl acetate and lead citrate, and observed under a transmission electron microscope.
To evaluate morphologic changes associated with the effect of compound of formula (I-a) (in this example, AlaAcBu) and the ALA+HDACI (in this example, BA) mixture on K562 cells, the cells were examined by immunohystochemical experiments, as shown in FIG. 7.

K562 cells [4] = assay: PpIX synthesis in K562 cells (FACS fluorescence); format: cell-based, human; conditions: 0.5 mM, 96 hours, vs 5-ALA alone, BA alone or their mixture
Procedure: Following treatment, cells are harvested, collected by centrifugation, washed twice and resuspended in 0.5 mL with sterile PBS. PpIX fluorescence is measured in 10,000 cells per sample using a FACS (Becton-Dickinson, CA, USA) with an excitation wavelength of 488 nm and emission wavelength>670 nm. Images of the stained cells are examined using a fluorescent microscope (IX70) (Olympus Tokyo, Japan) using an excitation filter of 330-385 nm and barrier filter at 420 nm […] PpIX fluorescence is measured at the FL-3 channel of FACS Calibur. Additionally, pictures of cells are taken using a fluorescent microscope-Nikon TE200-E, to show PpIX fluorescence.

PBGD = PBGD protein expression, Western blot, K562 cells; format: cell-based, human; conditions: 0.5 mM, 96 hours, compared to untreated cells or cells treated with ALA
Procedure: (§4) Proteins are quantified and equalized using the Bradford assay (Bio-Rad, CA, USA) and resolved on a 12% polyacrylamide gel. Afterwards, proteins are transferred from the gel onto nitrocellulose membranes (Bio-Rad, CA, USA) using a semi-dry transfer apparatus (Bio-Rad, CA, USA). After blocking the membranes with phosphate-buffered saline+0.2% Tween-20 (PBST) (Sigma-Aldrich, Israel) and 5% skim-milk (BD-Diagnostic Systems, MD, USA), membranes are incubated with primary rabbit anti-human PBGD antibody (a generous gift from flemeBiotech, Sweden), or with rabbit anti-α-Hb (H80) (Santa Cruz Biotechnology, CA, USA), or with HRP-conjugated mouse anti-β-actin antibody (C4) (Santa Cruz Biotechnology, CA, USA) diluted in blocking solution for 1 h in room temperature or for overnight in 4° c., washed with PBST and incubated with secondary antibodies diluted in blocking solution. Immuno-reactive proteins were visualized with enhanced chemiluminiscence detection EZ-ECL kit (Biological Industries, Israel) used as recommended by the manufacturer.
as §3

K562 cells [5] = assay: Intracellular total heme assay in K562 cells; format: cell-based, human; conditions: 0.5 mM, 96 hours, vs ALA alone, BA alone or mixture
Procedure: The method for quantitative determination of total heme in cell lysates is performed using hemin as a standard. The “total heme” or “endogenous heme” measured in these assays includes bound and free heme. Following treatments, 100 or 500 μg of cell lysate was added to 100 μL orthotolidine reagent (0.25 gr orthotolidine (Sigma-Aldrich, Israel) dissolved in 80 mL glacial acetic acid (Sigma-Aldrich, Israel) and 10 mL dd H2O). Heme is oxidized to a green product by adding 100 μL of 1.2% H2O2 to the mixture for 10 minutes incubation in the dark. The first oxidation product was further oxidized to a yellow product by adding 0.5 mL of a 1:9 v/v solution of diluted acetic acid. Absorbance of the second product was read at 430 nm using a spectrophotometer (Tecan Trading AG, Switzerland).
as §2

[6] = system: porphobilinogen deaminase (PBGD); assay: PBGD enzymatic activity assay in K562 cells; format: cell-based, human; conditions: 0.5 mM, 96 hours, vs ALA alone, BA alone or mixture
Procedure: K562 cells (1×10^6) are treated for 96 hours. PBGD activity is assayed as previously described by determining the fluorescence of uroporphyrin formed by the light-induced oxidation of uroporphyrinogen, which is the immediate product of the enzymatic deamination of 4 porphobilinogen molecules. In short, cells are harvested following treatment, and washed twice with PBS. After centrifugation, the pellet was resuspended in 200 μL 50 mM Tris buffer (pH 8.2) with 0.2% Triton. The cells are homogenized on ice and protein levels are quantified using the Bradford method. 400 μg protein was taken out in duplicates for incubation in 300 μL of 50 mM Tris buffer (pH 8.2) containing 0.2% Triton, with final concentration of 85 μM PBG (Sigma, Israel) for 1 hour at 37° C. The reaction is stopped by addition of 1.2 mL 15.6% TCA. […] The samples fluorescence is read using a Synergy spectrofluorometer (BioTek Instruments, VT, USA) with an excitation wavelength of 404 nm, and an emission wavelength of 595 nm. PBGD specific activity is calculated as activity percentage of control.
as §3

α-globin [7] = assay: α-globin protein expression, Western blot, K562 cells; format: cell-based, human; conditions: 0.5 mM, 96 hours, compared to any other treatment
Procedure: as §4, §2

Glycophorin A = Glycophorin A expression by flow cytometry (erythroblast differentiation); format: cell-based, human; conditions: K562 cells, 0.5 mM, 96 hours; compared to any other treatment
Procedure: K562 cells are fixed and stained with primary antibodies anti-αHb or anti-Glycophorin A and are tagged using the compatible secondary antibodies-Alexa 488-conjugated anti-rabbit antibody donkey anti-goat (Invitrogen, Oregon, USA) as recommended by Cell Signaling (MA, USA). Fluorescence is measured in 10,000 cells using FACS with an excitation wavelength of 488 nm and emission wavelength of 530 nm. K562 cells were suspended in paraformaldehyde 4% for 10 min at 37° C., followed by incubation with chilled methanol (final concentration 90%) for 30 min on ice. Cells were washed twice with PBS−/− and blocked with BSA 0.5% in PBS−/− for 10 min at room temperature. […] The cells were washed again with PBS−/− and fluorescence was measured in 10,000 cells per sample using a FACS (Becton-Dickinson, San Jose, Calif., USA) with an excitation wavelength of 488 nm and emission wavelength 530 nm.
K562 cells are grown as described above and incubated with 0.5 mM of various compounds for 96 hours. […] Glycophorin A content is measured using immunostaining analyzed by flow cytometry, as detailed above. […]

Balb-c mice = assay: Doxorubicin induced anemia in mice, blood hemoglobin; format: in vivo; conditions: male Balb-c mice, Dox 4 mg/kg ip once a week + 50 mg/kg ip compound, day 19; vs Dox alone
Procedure: In an additional setting 8 weeks old male Balb-c mice were divided to two groups, Group 1 received 4 mg/kg ip dose of Doxorubicin (Dox) once a week and Group 2 received the same Doxorubicin treatment and in addition the mice were treated with 50 mg/kg ip dose of the tested compound three times a week. Termination was done on day 19, blood samples were drawn by retro-orbital venipuncture under anesthesia. Hemoglobin levels in heparinized whole blood were determined using Drabkints reagent and standard hemoglobin obtained from Sigma-Aldrich and prepared and stored as instructed by the manufacturer.
In vivo 8 weeks old male Balb-c mice were divided to two groups, Group 1 received 4 mg/kg ip dose of doxorubicin (Dox) once a week and Group 2 received the same Dox treatment and in addition the mice were treated with 50 mg/kg ip dose of compound of formula (I-a) (in this example, 1-(butyryloxy)ethyl-5-amino-4-oxopentanoate, (AlaAcBu)) three times a week. The experiment was terminated on day 19, blood samples were drawn by retro-orbital venipuncture under anesthesia. Hemoglobin levels in heparinized whole blood were determined using Drabkin's reagent and standard hemoglobin obtained from Sigma-Aldrich and prepared and stored as instructed by the manufacturer.

HDAC class I and II = assay: Cellular HDAC activity (Fluor de Lys) in U-251 cells; format: cell-based, human; conditions: 2 hours with substrate, read-out: IC50 of HDAC inhibition
Procedure: Inhibition of the activity HDAC class I and II in the cells is performed with the fluorescent kit (AK-503, Biomol, USA). The cells are seeded (10×10^3 cells/well) in 96-well plates (in quadruplicates) in growth medium for 24 hours and then treated. Incubation with the HDAC substrate (Fluor de Lys™) is for 2 hours. The reaction is terminated by the addition of Fluor de Lys™ developer and 2 μM trichostatin A (TSA). The % of inhibition is calculated from the ratio of the fluorescence (measured at 355 nm excitation and 460 nm emission) in the treated compared to the untreated control culture.
In order to test the direct effect of octanoic acid, as well as co-drugs of formula (I-a) (which comprise octanoic acid as the carboxylic acid), on the activity of cellular HDAC, the activity of HDAC is evaluated by incubating U-251 cells for 2 hours with the cell-permeable HDAC fluorometric substrate for HDAC class I and II (Fluor de Lys™), as detailed above.

NCC(=O)CCC(=O)O [ALA, 5-aminolevulinic acid]
α-globin mRNA expression, fold elevation (α-globin [1]): 2.2 fold | cell viability (MTT, mitochondria activity % of control) (K562 cells [2]): did not affect cell viability | PBGD mRNA level (PBGD mRNA): significantly decreased

CCCC(=O)OC(C)OC(=O)CCC(=O)CN (stereo not drawn) [AlaAcBu, 1-(butyryloxy)ethyl 5-amino-4-oxopentanoate]
Ferrochelatase protein expression (Ferrochelatase): significantly higher level | α-globin mRNA expression, fold elevation (α-globin [1]): 11.3 fold | ultrastructural changes identified by TEM (K562 cells [3]): chromatin condensation, cytosolic hemoglobinization | intensity of the fluorescence generated by PpIX (K562 cells [4]): substantially higher | expression levels of PGBD (protein, Western blot) (PBGD): increased similarly | inhibition of cell proliferation (MTT) (K562 cells [2]): 33% | fold increase in total heme content (K562 cells [5]): higher | relative activity of PGBD compared to control [6]: higher | protein expression levels of α-globin (α-globin [7]): markedly elevated | relative expression of Glycophorin A (percentage of control) (Glycophorin A): highest increase | hemoglobin level in blood (Balb-c mice): ameliorate the Dox-induced suppression of erythropoiesis

CCCCCCCC(=O)O [octanoic acid]
IC50 (HDAC class I and II): 500 µM

CCCC(=O)O [BA, butyric acid]
α-globin mRNA expression, fold elevation (α-globin [1]): 9.1 fold | expression levels of PGBD (protein, Western blot) (PBGD): increased similarly | cell viability (MTT, mitochondria activity % of control) (K562 cells [2]): even increased it
